Reference: publication PMC2630805, “Anticancer Alkaloid Lamellarins Inhibit Protein Kinases” (Marine Drugs, 2008)

What was measured:
ROCK2 (h) = ROCK2 (h) (Homo sapiens, UniProt O75116); experiment: CEREP Kinase Selectivity Panel; format: biochemical; conditions: 10 μM lamellarin N
FLT-3 kinase (h) = FLT-3 kinase (h) (Homo sapiens, UniProt P36888); experiment: CEREP Kinase Selectivity Panel; format: biochemical; conditions: 10 μM lamellarin N
CDK5/p25 = CDK5/p25 (Homo sapiens, UniProt Q00535); experiment: CDK5/p25 kinase assay (histone H1)
Description: Blank values were subtracted and activities calculated as pmoles of phosphate incorporated during a 30 min. incubation. The activities were expressed in % of the maximal activity, i.e. in the absence of inhibitors. Controls were performed with appropriate dilutions of dimethylsulfoxide. Unless otherwise stated, the P81 phosphocellulose assay was used.
Its activity was assayed with histone H1 in buffer C as described for CDK1/cyclin B.

Src kinase (h) = Src kinase (h) (Homo sapiens, UniProt P12931); experiment: CEREP Kinase Selectivity Panel; format: biochemical; conditions: 10 μM lamellarin N
IGF1R kinase (h) = IGF1R kinase (h) (Homo sapiens, UniProt P08069); experiment: CEREP Kinase Selectivity Panel; format: biochemical; conditions: 10 μM lamellarin N
Chain of IGF1R kinase (h) (P08069 31-1367): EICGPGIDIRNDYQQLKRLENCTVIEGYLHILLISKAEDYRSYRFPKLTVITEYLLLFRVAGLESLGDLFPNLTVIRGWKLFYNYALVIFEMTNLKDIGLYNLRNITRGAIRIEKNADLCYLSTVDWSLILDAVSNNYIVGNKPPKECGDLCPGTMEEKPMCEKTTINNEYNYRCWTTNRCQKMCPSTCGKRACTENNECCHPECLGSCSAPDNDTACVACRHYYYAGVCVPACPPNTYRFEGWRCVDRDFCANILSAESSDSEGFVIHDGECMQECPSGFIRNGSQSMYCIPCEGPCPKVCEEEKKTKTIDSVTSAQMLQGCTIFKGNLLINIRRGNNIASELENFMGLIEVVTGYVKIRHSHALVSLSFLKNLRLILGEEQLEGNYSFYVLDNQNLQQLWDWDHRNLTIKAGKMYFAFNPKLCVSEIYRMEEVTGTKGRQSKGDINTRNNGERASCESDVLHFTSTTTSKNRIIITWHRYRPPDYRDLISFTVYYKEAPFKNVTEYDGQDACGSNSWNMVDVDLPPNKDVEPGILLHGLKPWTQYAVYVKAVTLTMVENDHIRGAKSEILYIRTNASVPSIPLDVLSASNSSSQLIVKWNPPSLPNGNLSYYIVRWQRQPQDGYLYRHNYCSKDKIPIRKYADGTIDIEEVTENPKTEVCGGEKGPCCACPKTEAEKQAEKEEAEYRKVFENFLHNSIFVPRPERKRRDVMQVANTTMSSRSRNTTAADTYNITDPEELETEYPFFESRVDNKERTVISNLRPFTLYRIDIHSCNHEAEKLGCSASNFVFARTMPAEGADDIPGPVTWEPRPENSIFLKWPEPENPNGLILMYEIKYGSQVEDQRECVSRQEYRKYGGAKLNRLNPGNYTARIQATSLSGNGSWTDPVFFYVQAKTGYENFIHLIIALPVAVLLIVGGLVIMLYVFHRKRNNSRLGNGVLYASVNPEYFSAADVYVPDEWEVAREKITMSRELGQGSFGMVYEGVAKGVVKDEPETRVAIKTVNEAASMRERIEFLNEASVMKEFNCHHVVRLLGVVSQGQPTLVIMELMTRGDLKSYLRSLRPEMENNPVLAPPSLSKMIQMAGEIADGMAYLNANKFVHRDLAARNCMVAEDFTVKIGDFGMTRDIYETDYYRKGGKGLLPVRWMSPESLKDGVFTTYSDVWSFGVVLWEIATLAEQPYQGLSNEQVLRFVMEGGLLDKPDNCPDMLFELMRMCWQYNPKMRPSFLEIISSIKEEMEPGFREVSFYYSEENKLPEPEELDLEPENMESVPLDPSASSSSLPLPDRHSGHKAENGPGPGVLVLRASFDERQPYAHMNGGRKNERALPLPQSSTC

PKA (h) = PKA (h) (Homo sapiens, UniProt P17612); experiment: CEREP Kinase Selectivity Panel; format: biochemical; conditions: 10 μM lamellarin N
FGFR4 kinase (h) = FGFR4 kinase (h) (Homo sapiens, UniProt P22455); experiment: CEREP Kinase Selectivity Panel; format: biochemical; conditions: 10 μM lamellarin N
Akt1/PKB α (h) = Akt1/PKB α (h) (Homo sapiens, UniProt P31749); experiment: CEREP Kinase Selectivity Panel; format: biochemical; conditions: 10 μM lamellarin N
Abl kinase (h) = Abl kinase (h) (Homo sapiens, UniProt P00519); experiment: CEREP Kinase Selectivity Panel; format: biochemical; conditions: 10 μM lamellarin N
PIM 1 = PIM 1 (Homo sapiens, UniProt P11309); experiment: PIM1 kinase assay (histone H1); format: biochemical
Chain of PIM 1 (P11309 whole entry, species assumed): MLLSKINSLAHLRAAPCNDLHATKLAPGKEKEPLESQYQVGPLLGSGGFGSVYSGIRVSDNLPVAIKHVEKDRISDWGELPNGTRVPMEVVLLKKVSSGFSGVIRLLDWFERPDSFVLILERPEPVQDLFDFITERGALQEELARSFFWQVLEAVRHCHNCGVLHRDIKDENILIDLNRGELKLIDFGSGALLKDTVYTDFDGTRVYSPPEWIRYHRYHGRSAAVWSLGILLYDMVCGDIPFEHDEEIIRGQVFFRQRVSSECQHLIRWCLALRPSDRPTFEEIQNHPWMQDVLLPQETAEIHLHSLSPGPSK

p38γ kinase (h) = p38γ kinase (h) (Homo sapiens, UniProt P53778); experiment: CEREP Kinase Selectivity Panel; format: biochemical; conditions: 10 μM lamellarin N
Chain of p38γ kinase (h) (P53778 whole entry): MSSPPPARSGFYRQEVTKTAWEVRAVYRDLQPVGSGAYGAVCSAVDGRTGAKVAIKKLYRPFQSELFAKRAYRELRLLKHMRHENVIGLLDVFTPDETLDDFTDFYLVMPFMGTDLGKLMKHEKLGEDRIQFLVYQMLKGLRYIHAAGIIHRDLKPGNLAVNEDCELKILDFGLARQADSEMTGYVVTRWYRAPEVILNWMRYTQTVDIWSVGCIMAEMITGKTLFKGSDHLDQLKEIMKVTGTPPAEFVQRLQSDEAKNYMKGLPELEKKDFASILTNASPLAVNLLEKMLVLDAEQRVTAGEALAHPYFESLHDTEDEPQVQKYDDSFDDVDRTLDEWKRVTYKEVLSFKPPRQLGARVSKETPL

MEK1/MAP2K1 (h) = MEK1/MAP2K1 (h) (Homo sapiens, UniProt Q02750); experiment: CEREP Kinase Selectivity Panel; format: biochemical; conditions: 10 μM lamellarin N
CaMK2α (h) = CaMK2α (h) (Homo sapiens, UniProt Q9UQM7); experiment: CEREP Kinase Selectivity Panel; format: biochemical; conditions: 10 μM lamellarin N
Chain of CaMK2α (h) (Q9UQM7 whole entry): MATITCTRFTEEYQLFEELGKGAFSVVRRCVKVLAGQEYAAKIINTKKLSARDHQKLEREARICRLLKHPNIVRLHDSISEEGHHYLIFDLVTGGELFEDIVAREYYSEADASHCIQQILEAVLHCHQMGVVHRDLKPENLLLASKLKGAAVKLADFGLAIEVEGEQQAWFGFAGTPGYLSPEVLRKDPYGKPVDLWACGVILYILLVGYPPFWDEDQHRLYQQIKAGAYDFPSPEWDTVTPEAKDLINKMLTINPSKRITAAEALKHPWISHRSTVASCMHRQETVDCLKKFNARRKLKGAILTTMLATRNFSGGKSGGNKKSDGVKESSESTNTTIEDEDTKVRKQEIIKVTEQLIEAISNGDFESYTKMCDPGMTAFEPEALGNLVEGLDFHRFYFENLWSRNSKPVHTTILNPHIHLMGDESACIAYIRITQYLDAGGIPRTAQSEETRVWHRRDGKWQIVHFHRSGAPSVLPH

[1] = system: human neuroblastoma SH-SY5Y cells; experiment: SH-SY5Y cell survival, MTS reduction assay; format: cell-based; conditions: read-out: IC50 SH-SY5Y cell survival
Description: We next tested the effects of each lamellarin, at an initial 10 μM concentration, on the survival of the neuroblastoma SH-SY5Y cell line after 48 h exposure (Table 2). Cell survival was estimated by the MTS reduction assay.
SH-SY5Y human neuroblastoma cells were grown in DMEM supplemented with 2mM L-glutamine (Invitrogen, Cergy Pontoise, France), plus antibiotics (penicillin-streptomycin) and a 10% volume of fetal calf serum (FCS) (Invitrogen). Cell viability was determined by means of the MTS (3- (4,5-dimethylthiazol-2-yl)-5- (3-carboxymethoxyphenyl)-2- (4-sulfophenyl)-2H -tetrazolium) reduction method as previously described. Cell death was (also) assayed by LDH release. Lactate dehydrogenase is a stable cytosolic enzyme that is released upon cell lysis. SH-SY5Y cells were also subjected to caspase activity assays. These are based on cleavage of a synthetic caspase substrate DEVD (MP Biomedicals, 199423), a subtrate of active caspase 3/6/7. The assay was carried out according to manufacturer’s instructions.

CSK (h) = CSK (h) (Homo sapiens, UniProt P41240); experiment: CEREP Kinase Selectivity Panel; format: biochemical; conditions: 10 μM lamellarin N
SH-SY5Y cells = experiment: Kinetics and dose-response of cell death (MTS reduction, LDH release, DEVDase caspase activity); format: cell-based, human; conditions: dose-response, doses as low as
Description: SH-SY5Y cells were next incubated with a range of lamellarin N concentrations or at 1 μM over 48 hrs. Cell survival was monitored by the MTS reduction assay, cell death was assessed by the LDH release assay and caspase activation was measured using DEVD as a substrate (Figure 1).
Figure 1. Dose- and time- dependent induction of cell death by lamellarin N. (A) Neuroblastoma SH-SY5Y cells were treated with lamellarin N at various concentrations. Cell death was measured by LDH release, cell survival was assessed by the MTS reduction assay, and caspase 3 activity was monitored as DEVDase activity. MTS and LDH assay were carried out 48 hours after treatment with lamellarin N. The caspase assay was carried out 24 hours after treatment. (B) Kinetics of cell survival, cell death and caspases activation following exposure of SH-SY5Y cells to 1 μM lamellarin N. Average of 3 independent experiments performed in triplicate. The standard deviation (±SD) is indicated by error bars.
SH-SY5Y human neuroblastoma cells were grown in DMEM supplemented with 2mM L-glutamine (Invitrogen, Cergy Pontoise, France), plus antibiotics (penicillin-streptomycin) and a 10% volume of fetal calf serum (FCS) (Invitrogen). Cell viability was determined by means of the MTS (3- (4,5-dimethylthiazol-2-yl)-5- (3-carboxymethoxyphenyl)-2- (4-sulfophenyl)-2H -tetrazolium) reduction method as previously described. […]

[2] = target: FLT-1 kinase (h) (VEGFR1) (Homo sapiens, UniProt P17948); experiment: CEREP Kinase Selectivity Panel; format: biochemical; conditions: 10 μM lamellarin N

Chain of ROCK2 (h) (O75116 whole entry): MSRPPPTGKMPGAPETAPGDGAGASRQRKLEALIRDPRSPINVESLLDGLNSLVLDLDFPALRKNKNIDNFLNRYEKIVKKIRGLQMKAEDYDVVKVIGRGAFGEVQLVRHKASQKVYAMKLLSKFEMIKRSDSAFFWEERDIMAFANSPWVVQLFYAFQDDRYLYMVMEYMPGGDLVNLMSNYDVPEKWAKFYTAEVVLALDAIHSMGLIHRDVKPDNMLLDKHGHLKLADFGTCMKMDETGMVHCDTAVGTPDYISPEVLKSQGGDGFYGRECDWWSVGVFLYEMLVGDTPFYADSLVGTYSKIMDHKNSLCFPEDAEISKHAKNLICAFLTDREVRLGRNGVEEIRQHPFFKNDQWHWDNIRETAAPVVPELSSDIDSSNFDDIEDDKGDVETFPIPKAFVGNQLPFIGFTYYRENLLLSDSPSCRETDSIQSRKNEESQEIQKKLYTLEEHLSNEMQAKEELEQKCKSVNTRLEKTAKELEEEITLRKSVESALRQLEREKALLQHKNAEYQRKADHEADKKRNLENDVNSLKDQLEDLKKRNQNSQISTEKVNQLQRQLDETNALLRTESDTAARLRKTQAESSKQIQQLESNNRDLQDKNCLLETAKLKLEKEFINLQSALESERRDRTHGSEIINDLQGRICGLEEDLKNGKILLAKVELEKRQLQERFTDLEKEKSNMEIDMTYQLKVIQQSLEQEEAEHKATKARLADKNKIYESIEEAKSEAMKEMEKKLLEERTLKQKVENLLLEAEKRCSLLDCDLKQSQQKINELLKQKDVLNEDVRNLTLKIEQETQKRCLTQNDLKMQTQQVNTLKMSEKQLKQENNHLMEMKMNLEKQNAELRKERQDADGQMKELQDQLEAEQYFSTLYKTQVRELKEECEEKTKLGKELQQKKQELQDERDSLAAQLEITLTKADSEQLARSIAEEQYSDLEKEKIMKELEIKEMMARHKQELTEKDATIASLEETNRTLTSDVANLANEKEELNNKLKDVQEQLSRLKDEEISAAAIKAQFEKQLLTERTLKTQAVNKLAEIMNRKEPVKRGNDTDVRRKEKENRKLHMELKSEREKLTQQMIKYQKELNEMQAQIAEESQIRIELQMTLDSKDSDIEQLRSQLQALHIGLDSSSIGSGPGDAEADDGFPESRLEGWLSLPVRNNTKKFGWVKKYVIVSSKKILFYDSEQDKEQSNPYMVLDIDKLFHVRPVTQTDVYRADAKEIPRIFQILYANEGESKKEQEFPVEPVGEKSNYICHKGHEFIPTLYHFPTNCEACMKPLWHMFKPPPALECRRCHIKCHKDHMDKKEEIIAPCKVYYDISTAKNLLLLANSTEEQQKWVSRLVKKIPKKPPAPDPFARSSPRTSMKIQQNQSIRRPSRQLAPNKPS
Chain of FLT-3 kinase (h) (P36888 27-993): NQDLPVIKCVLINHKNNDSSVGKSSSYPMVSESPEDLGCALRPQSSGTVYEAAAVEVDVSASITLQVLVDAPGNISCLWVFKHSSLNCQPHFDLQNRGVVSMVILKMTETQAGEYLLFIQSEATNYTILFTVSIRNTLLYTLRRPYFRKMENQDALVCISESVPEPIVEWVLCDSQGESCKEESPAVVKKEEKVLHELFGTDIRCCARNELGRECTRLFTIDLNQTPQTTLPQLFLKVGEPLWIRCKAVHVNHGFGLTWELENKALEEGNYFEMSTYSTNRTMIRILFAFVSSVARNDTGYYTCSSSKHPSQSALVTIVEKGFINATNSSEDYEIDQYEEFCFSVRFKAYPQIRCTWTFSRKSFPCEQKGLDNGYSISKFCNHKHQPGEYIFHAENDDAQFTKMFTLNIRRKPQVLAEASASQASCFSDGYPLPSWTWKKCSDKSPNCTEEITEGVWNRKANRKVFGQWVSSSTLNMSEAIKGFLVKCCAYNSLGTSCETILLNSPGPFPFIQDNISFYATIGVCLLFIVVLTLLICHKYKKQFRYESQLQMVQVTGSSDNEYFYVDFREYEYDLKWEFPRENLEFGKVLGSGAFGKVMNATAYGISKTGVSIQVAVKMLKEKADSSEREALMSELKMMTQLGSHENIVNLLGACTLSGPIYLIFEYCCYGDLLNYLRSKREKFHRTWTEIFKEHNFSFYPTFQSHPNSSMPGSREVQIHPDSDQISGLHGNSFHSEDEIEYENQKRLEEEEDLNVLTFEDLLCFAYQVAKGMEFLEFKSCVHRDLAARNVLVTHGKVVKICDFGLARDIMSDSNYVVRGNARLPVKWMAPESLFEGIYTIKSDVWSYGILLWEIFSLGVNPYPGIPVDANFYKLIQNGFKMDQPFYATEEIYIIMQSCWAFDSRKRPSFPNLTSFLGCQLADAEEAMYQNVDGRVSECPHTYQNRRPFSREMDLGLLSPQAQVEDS

Structure (SMILES): COc1ccc(-c2c3c4cc(OC)c(O)cc4oc(=O)c3n3ccc4cc(O)c(OC)cc4c23)cc1O [Compound 6, lamellarin N]
- Activity (% of control) (ROCK2 (h)): 103.3 % of control
- Activity (% of control) (FLT-3 kinase (h)): 0.4 % of control
- IC50 (CDK5/p25): 25 nM
- Activity (% of control) (Src kinase (h)): 56.2 % of control
- Activity (% of control) (IGF1R kinase (h)): 87.2 % of control
- Activity (% of control) (PKA (h)): 80.0 % of control
- Activity (% of control) (FGFR4 kinase (h)): 62.5 % of control
- Activity (% of control) (Akt1/PKB α (h)): 104.6 % of control
- Activity (% of control) (Abl kinase (h)): 61.4 % of control
- IC50 (PIM 1): 55 nM
- Activity (% of control) (p38γ kinase (h)): 79.6 % of control
- Activity (% of control) (MEK1/MAP2K1 (h)): 81.5 % of control
- Activity (% of control) (CaMK2α (h)): 38.2 % of control
- IC50 [1]: 25 nM
- Activity (% of control) (CSK (h)): 47.4 % of control
- lowest dose at which cells start dying (SH-SY5Y cells): 0.05 µM
- Activity (% of control) [2]: 4.0 % of control
